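Protocol summary: plate cells (96-well), add compound at 5 concentrations, incubate 48 h, interpolate endpoints linearly. TGI: concentration producing complete growth inhibition.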
Experiments:
Assay in all cases: NCI-60 cell line screen, 48 h
[1] = test system: EKVX NSCLC
[2] = test system: MDA-MB-435
[3] = test system: OVCAR-8 ovarian
[4] = test system: OVCAR-3 ovarian
[5] = test system: SK-MEL-5 melanoma
[6] = test system: K-562 leukemia
[7] = test system: HCT-116 colon
[8] = test system: SK-MEL-28 melanoma
[9] = test system: MALME-3M melanoma
[10] = test system: UACC-62 melanoma
[11] = test system: SK-MEL-2 melanoma
[12] = test system: IGROV1 ovarian
[13] = test system: CAKI-1 renal
[14] = test system: NCI-H226 lung
[15] = test system: TK-10 renal
[16] = test system: HCT-15 colon
[17] = test system: SF-268 CNS
[18] = test system: A498 renal
[19] = test system: NCI/ADR-RES ovarian
[20] = test system: COLO 205 colon
[21] = test system: RPMI-8226 leukemia
[22] = test system: CCRF-CEM leukemia
[23] = test system: NCI-H460 lung
[24] = test system: HS 578T breast
[25] = test system: KM12 colon
[26] = test system: SF-539 CNS
[27] = test system: SNB-19 CNS
[28] = test system: SR leukemia
[29] = test system: HT29 colon
[30] = test system: SF-295 CNS
[31] = test system: MDA-N
[32] = test system: RXF 393 renal
[33] = test system: SN12C renal
[34] = test system: OVCAR-5 ovarian
[35] = test system: MOLT-4 leukemia
[36] = test system: NCI-H23 lung
[37] = test system: UO-31 renal
[38] = test system: U251 CNS
[39] = test system: DU-145 prostate
[40] = test system: A549 NSCLC
[41] = test system: OVCAR-4 ovarian
[42] = test system: SW-620 colon
[43] = test system: UACC-257 melanoma
[44] = test system: MCF7 breast
[45] = test system: HL-60(TB) leukemia
[46] = test system: HOP-92 NSCLC
[47] = test system: SK-OV-3 ovarian
[48] = test system: PC-3 prostate
[49] = test system: ACHN renal
[50] = test system: MDA-MB-231 breast
[51] = test system: LOX IMVI melanoma
[52] = test system: HOP-62 NSCLC
[53] = test system: M14 melanoma
[54] = test system: HCC-2998 colon
[55] = test system: SNB-75 CNS
[56] = test system: NCI-H522 lung
[57] = test system: BT-549 breast
[58] = test system: 786-0 renal

SMILES: O=C1OC(c2ccc(O)c(F)c2)(c2ccc(O)c(F)c2)c2cccc3cccc1c23
- TGI [1]: 19.4 µM
- TGI [2]: > 25 µM
- TGI [3]: > 25 µM
- TGI [4]: > 25 µM
- TGI [5]: > 25 µM
- TGI [6]: > 25 µM
- TGI [7]: > 25 µM
- TGI [8]: > 25 µM
- TGI [9]: > 25 µM
- TGI [10]: > 25 µM
- TGI [11]: > 25 µM
- TGI [12]: > 25 µM
- TGI [13]: 10.1 µM
- TGI [14]: > 25 µM
- TGI [15]: > 25 µM
- TGI [16]: > 25 µM
- TGI [17]: > 25 µM
- TGI [18]: > 25 µM
- TGI [19]: > 25 µM
- TGI [20]: > 25 µM
- TGI [21]: > 25 µM
- TGI [22]: > 25 µM
- TGI [23]: > 25 µM
- TGI [24]: > 25 µM
- TGI [25]: > 25 µM
- TGI [26]: > 25 µM
- TGI [27]: > 25 µM
- TGI [28]: > 25 µM
- TGI [29]: > 25 µM
- TGI [30]: > 25 µM
- TGI [31]: > 25 µM
- TGI [32]: > 25 µM
- TGI [33]: > 25 µM
- TGI [34]: > 25 µM
- TGI [35]: > 25 µM
- TGI [36]: > 25 µM
- TGI [37]: > 25 µM
- TGI [38]: > 25 µM
- TGI [39]: > 25 µM
- TGI [40]: > 25 µM
- TGI [41]: 0.193 µM
- TGI [42]: > 25 µM
- TGI [43]: > 25 µM
- TGI [44]: > 25 µM
- TGI [45]: 18.9 µM
- TGI [46]: > 25 µM
- TGI [47]: > 25 µM
- TGI [48]: > 25 µM
- TGI [49]: > 25 µM
- TGI [50]: > 25 µM
- TGI [51]: > 25 µM
- TGI [52]: > 25 µM
- TGI [53]: > 25 µM

SMILES: CC(=O)OC1COC(n2c3ccccc3c3ccc4c5ccccc5[nH]c4c32)C(OC(C)=O)C1OC(C)=O (configuration not stated)
- TGI [2]: > 100 µM
- TGI [4]: > 100 µM
- TGI [5]: > 100 µM
- TGI [6]: 82.4 µM
- TGI [54]: > 100 µM
- TGI [7]: > 100 µM
- TGI [8]: > 100 µM
- TGI [10]: > 100 µM
- TGI [11]: > 100 µM
- TGI [12]: 30.8 µM
- TGI [13]: 65.9 µM
- TGI [16]: > 100 µM
- TGI [18]: 77.7 µM
- TGI [20]: > 100 µM
- TGI [21]: > 100 µM
- TGI [55]: 33.2 µM
- TGI [22]: > 100 µM
- TGI [23]: 57.6 µM
- TGI [56]: 44.6 µM
- TGI [25]: 37.9 µM
- TGI [27]: > 100 µM
- TGI [29]: 62.8 µM
- TGI [30]: 33.3 µM
- TGI [31]: > 100 µM
- TGI [57]: > 100 µM
- TGI [34]: > 100 µM
- TGI [35]: > 100 µM
- TGI [36]: > 100 µM
- TGI [37]: > 100 µM
- TGI [38]: 74.2 µM
- TGI [40]: > 100 µM
- TGI [41]: > 100 µM
- TGI [42]: > 100 µM
- TGI [43]: > 100 µM
- TGI [46]: 87.3 µM
- TGI [47]: 52.1 µM
- TGI [48]: 96.5 µM
- TGI [52]: 53.3 µM

SMILES: O=S(CCc1ccccc1)Nc1ccccc1 (configuration not stated)
- TGI [1]: > 100 µM
- TGI [2]: > 100 µM
- TGI [3]: > 100 µM
- TGI [4]: > 100 µM
- TGI [5]: > 100 µM
- TGI [6]: > 100 µM
- TGI [54]: > 100 µM
- TGI [7]: > 100 µM
- TGI [8]: > 100 µM
- TGI [9]: > 100 µM
- TGI [12]: > 100 µM
- TGI [13]: > 100 µM
- TGI [14]: > 100 µM
- TGI [15]: > 100 µM
- TGI [16]: > 100 µM
- TGI [17]: > 100 µM
- TGI [19]: > 100 µM
- TGI [20]: > 100 µM
- TGI [21]: > 100 µM
- TGI [55]: > 100 µM
- TGI [22]: > 100 µM
- TGI [23]: > 100 µM
- TGI [24]: > 100 µM
- TGI [56]: > 100 µM
- TGI [25]: > 100 µM
- TGI [26]: > 100 µM
- TGI [27]: > 100 µM
- TGI [28]: > 100 µM
- TGI [29]: > 100 µM
- TGI [30]: > 100 µM
- TGI [31]: > 100 µM
- TGI [32]: > 100 µM
- TGI [33]: > 100 µM
- TGI [34]: > 100 µM
- TGI [35]: > 100 µM
- TGI [36]: > 100 µM
- TGI [37]: > 100 µM
- TGI [38]: > 100 µM
- TGI [39]: > 100 µM
- TGI [40]: > 100 µM
- TGI [42]: > 100 µM
- TGI [43]: > 100 µM
- TGI [44]: > 100 µM
- TGI [45]: > 100 µM
- TGI [58]: > 100 µM
- TGI [48]: > 100 µM
- TGI [49]: > 100 µM
- TGI [50]: > 100 µM
- TGI [51]: > 100 µM
- TGI [52]: > 100 µM
- TGI [53]: > 100 µM

Source: PubChem BioAssay (NCI)
